From patent US11191772B2, “Use” (DSM IP ASSETS B.V., priority 2017, dated 2021)

Legend:
Test in all cases: Antimicrobial efficacy challenge test (in analogy to NF EN ISO11930)
[1] = system: Corynebacterium xerosis; assay type: cell-based; settings: for colony counts 24 h: 22° C.
Description: (§1) The antimicrobial efficacy is assessed in analogy to the regulatory challenge test method (NF EN ISO11930). Thus, a solution of Erythrulose from DSM Nutritional products in two different concentrations was prepared under sterile conditions. For this the Erythrulose was solubilized in physiological serum with 0.85 wt.-% NaCl. Phenoxyethanol was solubilized in a physiological serum with 0.85 wt.-% NaCl further comprising 5 wt.-% ethanol to ensure solubility. The solutions were deposed in 96-deep well plates (1.6 ml/well). The wells were contaminated with the respective bacterial or the fungal strains at 1.9*10^5 to 8.1*10^5 cfu/ml for the bacteria and 3.3*10^3 to 3.8*10^4 cfu/ml for the fungi to obtain the initial contamination as outlined in table 1 and 2. After contamination each well was thoroughly mixed to ensure a homogeneous distribution of the microorganism. Then each plate was incubated at 22° C. for 24 h. The counting of the (remaining) population was carried out 24 h after contamination.

[2] = system: Staphylococcus epidermidis; assay type: cell-based; settings: for colony counts 24 h: 22° C.
Description: as §1

[3] = system: Aspergillus brasiliensis; assay type: cell-based; settings: 22° C.
Description: as §1

[4] = system: Escherichia coli; assay type: cell-based; settings: for colony counts 24 h: 22° C.
Description: as §1

[5] = system: Propionibacterium acnes; assay type: cell-based; settings: for colony counts 24 h: 22° C.
Description: as §1

[6] = system: Pseudomonas aeruginosa; assay type: cell-based; settings: for colony counts 24 h: 22° C.
Description: as §1

[7] = system: S. aureus; assay type: cell-based, Staphylococcus aureus; settings: Erythrulose 0.4 wt.-%, 24 h after contamination, 22° C., 0 h count 190000
Description: as §1

[8] = system: C. albicans; assay type: cell-based, Candida albicans; settings: Erythrulose 0.4 wt.-%, 24 h after contamination, 22° C., 0 h count 19000
Description: as §1

O=C(CO)[C@H](O)CO (racemic) [Erythrulose, erythrulose]
antimicrobial activity (in words) ([1]; C. xerosis, very low concentration (table 2, 0.08%)): particularly and selectively active
colony counts 24 h ([1]; Erythrulose 0.08% active, Corynebacterium xerosis, 24 h, t0 count 250000): 55 cfu/ml
colony counts 24 h ([1]; Erythrulose 0.4 wt.-%, C. xerosis, 24 h after contamination, 0 h count 810000): 0 cfu/ml
colony counts 24 h ([2]; Erythrulose 0.08% active, Staphylococcus epidermidis, 24 h, t0 count 560000): 0 cfu/ml
colony counts 24 h ([2]; Erythrulose 0.4 wt.-%, S. epidermidis, 24 h after contamination, 0 h count 500000): 0 cfu/ml
antimicrobial activity (in words) ([2]; S. epidermidis, very low concentration (table 2, 0.08%)): particularly and selectively active
colony counts 24 h ([3]; Erythrulose 0.08% active, Aspergillus brasiliensis, 24 h, t0 count 10000): 10 cfu/ml
colony counts 24 h ([3]; Erythrulose 0.4 wt.-%, A. brasiliensis, 24 h after contamination, 0 h count 38000): 330 cfu/ml
antimicrobial activity (in words) ([4]; E. coli, very low concentration (table 2, 0.08%)): not active anymore
colony counts 24 h ([4]; Erythrulose 0.08% active, Escherichia coli, 24 h, t0 count 250000): 530000 cfu/ml
colony counts 24 h ([4]; Erythrulose 0.4 wt.-%, E. coli, 24 h after contamination, 0 h count 440000): 280000 cfu/ml
colony counts 24 h ([5]; Erythrulose 0.08% active, Propionibacterium acnes, 24 h, t0 count 310000): 3300 cfu/ml
colony counts 24 h ([5]; Erythrulose 0.4 wt.-%, P. Acnes, 24 h after contamination, 0 h count 500000): 55000 cfu/ml
antimicrobial activity (in words) ([5]; P. acnes, very low concentration (table 2, 0.08%)): good antimicrobial activity
colony counts 24 h ([6]; Erythrulose 0.08% active, Pseudomonas aeruginosa, 24 h, t0 count 450000): 530000 cfu/ml
colony counts 24 h ([6]; Erythrulose 0.4 wt.-%, P. aeruginosa, 24 h after contamination, 0 h count 810000): 0 cfu/ml
antimicrobial activity (in words) ([6]; P. aeruginosa, very low concentration (table 2, 0.08%)): not active anymore
colony counts 24 h [7]: 0 cfu/ml
colony counts 24 h [8]: 78 cfu/ml
